Values joined by “and” are separate entries in the source; they are usually repeats but may differ in a detail not shown here. Identical values can stand only once. Marks after values point to notes of the source that are not given here.
Test system: anti collagen antibodies induced arthritis (ACAIA)
Assay: Anti collagen antibodies induced arthritis (ACAIA) in mice, intra-articular treatment: paw thickness, arthritis clinical score, body weight;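 also: mouse arthritis induced by IV anti-collagen mAb on day 0 plus IP LPS on day 4, with body weight, caliper paw thickness and 0-4 paw score tracked against a day 0 baseline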
Details: for Average clinical score per day (untreated): untreated leg
[1] = Dexamethasone 1 mg/kg IA (Group 7), Av
[2] = Dexamethasone 1 mg/kg IA (Group 7), individual animals
[3] = Dexamethasone 1 mg/kg IP (Group 6), Av
[4] = Dexamethasone 1 mg/kg IP (Group 6), individual animals

C[C@@H]1C[C@H]2[C@@H]3CCC4=CC(=O)C=C[C@]4(C)[C@@]3(F)[C@@H](O)C[C@]2(C)[C@@]1(O)C(=O)CO [dexamethasone, Dexamethasone, reference compound]
Paw thickness of treated leg (Avg.) (1 mg/kg IP (Group 6), Day 6): 2.25** mm | Percent change of weight per day (Av) (1 mg/kg IP (Group 6), Day 6): 87.71% | Percent change of weight per day (individual animal) (1 mg/kg IP (Group 6), Day 6): 88.44% and 86.7% and 89.66% and 86.18% and 86.85% and 89.74% and 86.41% | Δ clinical score untreated -treated, Avg. Delta (1 mg/kg IP (Group 6), Day 6): 0.00 points | Clinical score of treated leg (Avg.) (1 mg/kg IP (Group 6), Day 7): 0.00** points | Paw thickness Avg. Delta untreated -treated (1 mg/kg IP (Group 6), Day 7): 0.03 mm | Paw thickness of treated leg (Avg.) (1 mg/kg IP (Group 6), Day 7): 2.16**** mm | Percent change of weight per day (Av) (1 mg/kg IP (Group 6), Day 7): 88.39% | Percent change of weight per day (individual animal) (1 mg/kg IP (Group 6), Day 7): 89.45% and 85.22% and 88.67% and 87.5576% and 88.73% and 90.26% and 88.83% | Δ clinical score untreated -treated, Avg. Delta (1 mg/kg IP (Group 6), Day 7): 0.00 points | Clinical score of treated leg (Avg.) (1 mg/kg IP (Group 6), Day 8): 0.00** points | Paw thickness Avg. Delta untreated -treated (1 mg/kg IP (Group 6), Day 8): 0.10 mm | Percent change of weight per day (Av) (1 mg/kg IP (Group 6), Day 8): 88.85% | Percent change of weight per day (individual animal) (1 mg/kg IP (Group 6), Day 8): 89.95% and 85.22% and 87.68% and 91.24% and 88.73% and 91.28% and 87.86% | Δ clinical score untreated -treated, Avg. Delta (1 mg/kg IP (Group 6), Day 8): 0.00 points | Clinical score of treated leg (Avg.) (1 mg/kg IP (Group 6), Day 10): 0.14* points | Paw thickness Avg. Delta untreated -treated (1 mg/kg IP (Group 6), Day 10): −0.04 mm | Paw thickness of treated leg (Avg.) (1 mg/kg IP (Group 6), Day 10): 2.09** mm | Percent change of weight per day (Av) (1 mg/kg IP (Group 6), Day 10): 88.77% | Percent change of weight per day (individual animal) (1 mg/kg IP (Group 6), Day 10): 89.45% and 86.7% and 88.18% and 91.24% and 88.26% and 89.23% and 88.35% | Δ clinical score untreated -treated, Avg. Delta (1 mg/kg IP (Group 6), Day 10): −0.14 points | Clinical score of treated leg (Avg.) (1 mg/kg IP (Group 6), Day 12): 0.00* points | Paw thickness Avg. Delta untreated -treated (1 mg/kg IP (Group 6), Day 12): −0.02 mm | Percent change of weight per day (Av) (1 mg/kg IP (Group 6), Day 12): 90.11% | Percent change of weight per day (individual animal) (1 mg/kg IP (Group 6), Day 12): 91.9598% and 88.18% and 91.133* percent and 90.78% and 90.14% and 89.23% and 89.32% | Δ clinical score untreated -treated, Avg. Delta (1 mg/kg IP (Group 6), Day 12): 0.00 points | Weight per day, Baseline [1]: 19.8 g | Weight per day, Day 3 [1]: 19.5 g | Weight per day, Day 4 [1]: 18.8 g | Weight per day, Day 5 [1]: 18.1 g | Weight per day, Day 6 [1]: 17.5 g | Weight per day, Day 7 [1]: 17.4 g | Weight per day, Day 8 [1]: 17.7 g | Weight per day, Day 10 [1]: 18.3 g | Weight per day, Baseline [2]: 19.1 g and 20.3 g and 18.6 g and 19.2 g and 20.2 g (2×) and 20.9 g | Weight per day, Day 3 [2]: 19.1 g (2×) and 19.8 g and 17.8 g and 19.9 g and 19.7 g and 20.6 g | Weight per day, Day 4 [2]: 18.7 g and 19.6 g and 17.3 g and 17.9 g and 19.2 g and 19.1 g and 20.1 g | Weight per day, Day 5 [2]: 17.3 g and 18.5 g and 16.5 g and 19.2 g and 18.2 g and 17.7 g and 19 g | Weight per day, Day 6 [2]: 16.6 g and 17.8 g and 16 g and 19.6 g and 17.7 g and 17.1 g and 17.9 g | Weight per day, Day 7 [2]: 17 g and 16.9 g and 16 g and 20 g and 17.4 g and 15.8 g and 18.7 g | Weight per day, Day 8 [2]: 17.2 g and 16.9 g and 16.3 g and 20.1 g and 18 g and 16.4 g and 18.9 g | Weight per day, Day 10 [2]: 17.4 g and 18.8 g and 16.3 g and 20 g and 18.2 g (2×) and 19.4 g | Weight per day, Baseline [3]: 20.5 g | Weight per day, Day 3 [3]: 19.6 g | Weight per day, Day 4 [3]: 19.8 g | Weight per day, Day 5 [3]: 18.1 g | Weight per day, Day 6 [3]: 18 g | Weight per day, Day 7 [3]: 18.1 g | Weight per day, Day 8 [3]: 18.2 g | Weight per day, Day 10 [3]: 18.2 g | Weight per day, Baseline [4]: 19.9 g and 20.3 g (2×) and 21.7 g and 21.3 g and 19.5 g and 20.6 g | Weight per day, Day 3 [4]: 18.9 g and 19.1 g and 19.3 g and 20.9 g and 20.5 g and 18.8 g and 19.8 g | Weight per day, Day 4 [4]: 19.2 g and 19.4 g and 19.7 g and 20.9 g and 20.6 g and 19 g and 19.9 g | Weight per day, Day 5 [4]: 17.6 g and 17.5 g (2×) and 18.6 g and 18.7 g and 18.5 g and 18.4 g | Weight per day, Day 6 [4]: 17.6 g (2×) and 18.2 g and 18.7 g and 18.5 g and 17.5 g and 17.8 g | Weight per day, Day 7 [4]: 17.8 g and 17.3 g and 18 g and 19 g and 18.9 g and 17.6 g and 18.3 g | Weight per day, Day 8 [4]: 17.9 g and 17.3 g and 17.8 g (2×) and 19.8 g and 18.9 g and 18.1 g | Weight per day, Day 10 [4]: 17.8 g and 17.6 g and 17.9 g and 19.8 g and 18.8 g and 17.4 g and 18.2 g | average arthritis score, treated limbs (intra-articular 1 mg/kg, day 12, scale 0-4): 1.3 | Average clinical score per day (untreated) (1 mg/kg IA (Group 7), Baseline): 0.00 points | Average clinical score per day (untreated) (1 mg/kg IA (Group 7), Day 3): 0.00 points | Average clinical score per day (untreated) (1 mg/kg IA (Group 7), Day 4): 0.00 points | Average clinical score per day (untreated) (1 mg/kg IA (Group 7), Day 5): 0.00 points | Average clinical score per day (untreated) (1 mg/kg IA (Group 7), Day 6): 0.57 points | Average clinical score per day (untreated) (1 mg/kg IA (Group 7), Day 7): 0.86 points | Average clinical score per day (untreated) (1 mg/kg IA (Group 7), Day 8): 1.71 points | Average clinical score per day (untreated) (1 mg/kg IA (Group 7), Day 10): 1.57 points | Average clinical score per day (untreated) (1 mg/kg IA (Group 7), Day 12): 1.71 points | Average clinical score per day (untreated) (1 mg/kg IP (Group 6), Baseline): 0.00 points | Average clinical score per day (untreated) (1 mg/kg IP (Group 6), Day 3): 0.00 points | Average clinical score per day (untreated) (1 mg/kg IP (Group 6), Day 4): 0.00 points | Average clinical score per day (untreated) (1 mg/kg IP (Group 6), Day 5): 0.00 points | Average clinical score per day (untreated) (1 mg/kg IP (Group 6), Day 6): 0.00 points | Average clinical score per day (untreated) (1 mg/kg IP (Group 6), Day 7): 0.00 points | Average clinical score per day (untreated) (1 mg/kg IP (Group 6), Day 8): 0.00 points | Average clinical score per day (untreated) (1 mg/kg IP (Group 6), Day 10): 0.00 points | Average clinical score per day (untreated) (1 mg/kg IP (Group 6), Day 12): 0.00 points
